Test results published in ChEMBL document CHEMBL4680362, “Androgen Receptor Protein Degradation in the Treatment of Castration-Resistant Prostate Cancer” (ACS Med Chem Lett, 2021).

What was measured:
[1] = target: T1, von Hippel-Lindau disease tumor suppressor/Androgen receptor (Homo sapiens) (UniProt P10275+P40337); test: Protac activity at VHL/AR in human LNCaP cells assessed as degradation of AR at 0.01 uM measured after 6 hrs by Western blot analysis relative to control; assay type: cell-based
[2] = target: T1, von Hippel-Lindau disease tumor suppressor/Androgen receptor (Homo sapiens); test: Protac activity at VHL/AR in human LNCaP cells assessed as degradation of AR at 0.1 uM measured after 6 hrs by Western blot analysis relative to control; assay type: cell-based

T1 sequence (P10275 whole entry, looked up): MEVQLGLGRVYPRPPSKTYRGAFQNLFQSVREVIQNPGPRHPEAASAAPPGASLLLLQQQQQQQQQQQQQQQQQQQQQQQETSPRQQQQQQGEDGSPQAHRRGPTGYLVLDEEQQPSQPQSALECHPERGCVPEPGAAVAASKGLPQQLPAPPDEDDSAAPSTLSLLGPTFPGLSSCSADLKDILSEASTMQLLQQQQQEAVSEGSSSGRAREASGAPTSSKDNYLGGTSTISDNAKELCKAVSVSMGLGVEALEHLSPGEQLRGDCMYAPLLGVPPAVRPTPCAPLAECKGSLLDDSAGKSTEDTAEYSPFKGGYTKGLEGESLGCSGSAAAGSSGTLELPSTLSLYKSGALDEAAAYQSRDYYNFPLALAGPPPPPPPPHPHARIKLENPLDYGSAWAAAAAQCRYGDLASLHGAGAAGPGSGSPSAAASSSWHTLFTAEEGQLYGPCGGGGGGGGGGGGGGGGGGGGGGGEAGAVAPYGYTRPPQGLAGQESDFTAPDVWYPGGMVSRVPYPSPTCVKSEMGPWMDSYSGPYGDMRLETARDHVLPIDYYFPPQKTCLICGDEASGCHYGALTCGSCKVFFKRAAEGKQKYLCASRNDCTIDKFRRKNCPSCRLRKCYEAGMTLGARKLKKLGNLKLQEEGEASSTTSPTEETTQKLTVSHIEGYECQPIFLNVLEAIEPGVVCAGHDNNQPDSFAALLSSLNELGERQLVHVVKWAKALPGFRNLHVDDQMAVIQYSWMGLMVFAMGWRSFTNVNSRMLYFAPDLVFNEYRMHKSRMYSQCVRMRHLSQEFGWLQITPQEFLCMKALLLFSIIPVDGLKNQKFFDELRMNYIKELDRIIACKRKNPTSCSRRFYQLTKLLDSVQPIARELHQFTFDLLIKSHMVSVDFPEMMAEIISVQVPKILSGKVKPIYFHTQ
T1 sequence (P40337 whole entry, looked up): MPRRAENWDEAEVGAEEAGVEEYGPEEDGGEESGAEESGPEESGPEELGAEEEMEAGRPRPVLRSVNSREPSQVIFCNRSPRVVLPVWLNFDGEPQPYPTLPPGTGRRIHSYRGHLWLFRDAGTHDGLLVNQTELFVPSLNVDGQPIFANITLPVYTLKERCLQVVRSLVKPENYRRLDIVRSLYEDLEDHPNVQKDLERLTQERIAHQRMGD

For `Cc1cc([C@H](C(=O)N2C[C@H](O)C[C@H]2C(=O)N[C@@H](CC(=O)NN2CCC(N3CCC(C#Cc4ccc(N5C(=S)N(c6cnc(C#N)c(C(F)(F)F)c6)C(=O)C56CCC6)cc4)CC3)CC2)c2ccc(-c3scnc3C)cc2)C(C)C)on1`, the Activity [1] was 38% and the Activity [2] was 80%.
Compound `Cc1ncsc1-c1ccc([C@H](CC(=O)N2CCC(N3CCC(C#Cc4ccc(C(=O)N[C@H]5C(C)(C)[C@H](Oc6ccc(C#N)c(Cl)c6)C5(C)C)cc4)CC3)CC2)NC(=O)[C@@H]2C[C@@H](O)CN2C(=O)[C@@H](NC(=O)C2(F)CC2)C(C)(C)C)cc1` has an Activity [1] of 89% and an Activity [2] of 99%.
`CC1(C)[C@H](NC(=O)c2ccc(C#CC3CCN(C4CCN(c5cccc6c5C(=O)N(C5CCC(=O)NC5=O)C6=O)CC4)CC3)cc2)C(C)(C)[C@H]1Oc1ccc(C#N)c(Cl)c1` (some centres undefined) was tested, and the Activity [2] was 2%.
Work on `Cc1cc([C@H](C(=O)N2C[C@H](O)C[C@H]2C(=O)N[C@@H](CC(=O)NN2CCC(N3CCC(C#Cc4ccc(N5C(=S)N(c6ccc(C#N)c(C(F)(F)F)c6)C(=O)C5(C)C)cc4)CC3)CC2)c2ccc(-c3scnc3C)cc2)C(C)C)on1` yielded an Activity [1] of 20% and an Activity [2] of 81%.
With `CC(=O)N[C@H](C(=O)N1C[C@H](O)C[C@H]1C(=O)N[C@@H](CC(=O)N1CCC(N2CCC(C#Cc3ccc(C(=O)N[C@H]4C(C)(C)[C@H](Oc5ccc(C#N)c(Cl)c5)C4(C)C)cc3)CC2)CC1)c1ccc(-c2scnc2C)cc1)C(C)(C)C` the Activity [1] was 39% and the Activity [2] was 77%.
For `Cc1cc([C@H](C(=O)N2C[C@H](O)C[C@H]2C(=O)N[C@@H](CC(=O)N2CCC(N3CCC(C#Cc4ccc(C(=O)N[C@H]5C(C)(C)[C@H](Oc6ccc(C#N)c(Cl)c6)C5(C)C)cc4)CC3)CC2)c2ccc(-c3scnc3C)cc2)C(C)C)on1`, the Activity [1] was 76% and the Activity [2] was 98%.
Compound `Cc1ncsc1-c1ccc([C@H](CC(=O)N2CCC(N3CCC(C#Cc4ccc(C(=O)N[C@H]5C(C)(C)[C@H](Oc6ccc(C#N)c(Cl)c6)C5(C)C)cc4)CC3)CC2)NC(=O)[C@@H]2C[C@@H](O)CN2C(=O)[C@@H](NC(=O)C2(C#N)CC2)C(C)(C)C)cc1` has an Activity [1] of 76% and an Activity [2] of 99%.
In the case of `Cc1cc([C@H](C(=O)N2C[C@H](O)C[C@H]2C(=O)N[C@@H](CC(=O)N2CCC(N3CCC(C#Cc4ccc(Cc5c(C)nn(-c6ccc(C#N)c(Cl)c6)c5C)cc4)CC3)CC2)c2ccc(-c3scnc3C)cc2)C(C)C)on1`, the Activity [2] is reported as 65%.
